# Data published in article PMC13195669, “GPR3 Ligands Discovered through Combined Virtual and Conformational Biosensor-Based Screening” (Journal of the American Chemical Society, 2026).
# Legend:
# [1] = test system: GPR3 mutant (bulky tryptophan residues in extracellular loop 2); test: GPR3 conformational biosensor with tryptophan insertions in extracellular loop 2; type: cell-based, human; details: wildtype vs mutant biosensor; transiently transfected HEK293A
# Description: To develop a hypothesis for the cause of the significant loss in efficacy from VH1 to 33, we computationally predicted the binding poses of both molecules in GPR3 (Figure a). […] In contrast, the cyclopropyl ring of 33 is still buried in the receptor’s transmembrane core. […] We also challenged this binding model of 33 with another GPR3 biosensor variant which harbors the T^3.37A point mutation in transmembrane helix 3. According to an alternative predicted pose of 33 obtained with Boltz-2 (c.f., SI – Materials and Methods section), this mutation should hamper 33 binding to GPR3.
# 5 Proposed binding poses of VH1 and 33. […]
# (§1) Cells expressing the conformational GPCR biosensors were grown for 24 h (stable cells) or 48 h (transiently transfected cells) in white 96-well plates and washed with 100 µl of HBSS. […] Three baseline BRET reads were recorded and averaged prior to the addition of serial dilutions of ligands or veh icle control and subsequent BRET reads. […] BRE T donor emission was quantified with a 470/80 nm monochromator. […] Experiments were carried out using a CLARIOstar plate reader.
# (§2) FRET- and BRET-based measurements of cAMP levels and Gs dissociation/reassociation Transfected cells grown in black 96-well plates were washed twice with 100 µl of HBSS 48 h after transfection and incubated with HBSS. […] FRET donor emission was quantified with a 480/10 nm filter. […]
# [2] = target: T1, GPR3 (Homo sapiens, UniProt P46089); test: Gs heterotrimer dissociation biosensor (Gs-CASE) in HEK293A cells cotransfected with GPR3; type: cell-based; details: HEK293A transiently transfected with Gs-CASE and GPR3; read-out: EC50 of GPR3-dependent BRET increase, Gs dissociation biosensor
# T1 construct: host or cells: HEK293A, transient
# T1 sequence (P46089 whole entry): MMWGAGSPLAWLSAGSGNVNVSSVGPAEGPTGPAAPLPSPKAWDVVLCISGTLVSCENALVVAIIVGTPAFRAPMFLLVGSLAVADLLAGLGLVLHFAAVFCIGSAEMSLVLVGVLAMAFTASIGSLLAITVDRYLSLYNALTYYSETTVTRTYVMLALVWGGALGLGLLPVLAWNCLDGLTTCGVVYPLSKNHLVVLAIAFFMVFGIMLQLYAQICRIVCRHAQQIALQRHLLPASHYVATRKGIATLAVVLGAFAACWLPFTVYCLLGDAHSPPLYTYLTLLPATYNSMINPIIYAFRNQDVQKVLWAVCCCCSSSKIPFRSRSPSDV
# Description: To further delineate the pharmacological properties of 33, we evaluated its activity in signaling assays downstream of GPR3. […] We also investigated whether 33 blocks the activity of previously validated GPR3 ligands–the agonist DPI and the inverse agonist AF64394 (Chart )–in a cAMP assay. […] The differential effect between OEA and oleamide may reflect differences in their conformational and/or positional flexibility within the GPR3 binding pocket. This difference is supported by MD simulations of oleamide in GPR3 and by a comparison of oleic acid binding poses in the highly similar pockets of GPR3 and GPR6. , […]
# as §1, §2
Compound,effect of extracellular loop 2 tryptophan insertions on concentration-response [1],EC50 [2]
N=c1n(Cc2ccccc2)c2ccccc2n1CC(O)COc1ccc(Cl)cc1 (stereo not drawn) [compound 52],right-shifted,
N=c1n(Cc2ccccc2)c2ccccc2n1CC1CC1 [compound 33],not affected by these modifications,249 nM
